Test results published in patent US20250295711A1, “FOOD SUPPLEMENT” (FONTERRA CO-OPERATIVE GROUP LIMITED, priority 2022, published 2025).
Marks after values point to notes of the source that are not given here.

Tests used:
[1] = Body weight gain of CUMS rats; assay type: in vivo, rat; conditions: FIG. 3
Experimental: (§1) A series of experiments were conducted using the chronic unpredictable mild stress (CUMS) rodent model. Rats were exposed daily to any two of the following mild physiological stresses selected at random: • 12 hours of water deprivation • 12 hours of food deprivation • 8 hours of damp sawdust • 24 hours of reversed light/dark cycle • 2 minutes of tail pinching • 1 hour of 60 Hz noise • 15 minutes of cage shaking • Swimming in 4° C. water for 5-10 minutes • 2 hours of restraining.
(§2) Six groups of rats were assessed: • 1. Control rats: rats raised normally without stress treatments and without nutritional or drug interventions. • 2. CUMS rats: rats subjected to the CUMS protocol but without nutritional or drug interventions. • 3. CUMS HN001: rats subjected to the CUMS protocol and given HN001. • 4. CUMS HN019: rats subjected to the CUMS protocol and given HN019. • 5. CUMS HN001+HN019: rats subjected to the CUMS protocol given both HN001 and HN019. • 6.
(§3) Baseline assessments were then conducted, including blood collection. For the next 40 days, rats in groups 2-6 were exposed to CUMS treatments to induce depression symptoms associated with stress and anxiety.
The reduced weight gain in rats exposed to CUMS was improved by administration of HN001, HN019, or both (FIG. 3). Also, there were no differences in weight gain between CUMS groups.

[2] = test system: 5-HT, DA, NE, Glu, GABA, HIAA, DOPAC, HVA; assay: Neurotransmitters and their metabolites in serum and brain of CUMS rats; assay type: in vivo, rat; conditions: FIG. 6
Source text: The level of serum and brain 5-HT, DA, NE, Glu and GABA were detected at the end of the experiment (A, B, D, E, G, H, J, K, L). (C), (F) and (I) show the metabolites of monoamine neurotransmitters in brain. The results are presented as the mean±SEM (n=10). #P<0.05 compared with CUMS group.
HIAA, DOPAC and HVA, as the metabolites of 5-HT, DA and NE, were increased in rat brains after CUMS stimulation.

brain and colon tissue = assay: HE staining of brain and colon tissues of CUMS rats; assay type: in vivo, rat; conditions: FIG. 5; for Morphology of hippocampus (DG, CA1) and cortex (P2): brain
Source text: Brain tissues included two regions from the hippocampus (Dentate Gyrus (DG) and CA1) and a region from the cortex (P2).
Brain and colon tissue were stained using the HE method. Brain tissue included two regions from the hippocampus (Dentate Gyrus (DG) and CA1) and a region from the cortex (P2). The results are shown in FIG. 5 and reveal that for the control group, neurons in hippocampal regions (dentate gyrus (DG) and Ca1) and the cortex (P2) were normal, orderly, tightly packed cells. The cells had expected morphology, homogeneous cytoplasmic staining, and no increased interstitial or abnormal changes.
For the colon tissue, control intestinal villi were arranged neatly, with normal cell morphology and no obvious damage was seen.

CUMS rats [3] = assay: Open field test in CUMS (chronic unpredictable mild stress) rats; assay type: in vivo, rat; conditions: for Total Distance Travelled in Open Field Test, After CUMS only (x ± S): after 40 days CUMS; for Total Distance Travelled in Open Field Test, After CUMS only (x ± S) / Vertical Movement (Number of Times Standing Up) in Open Field Test, After CUMS (x ± S): before intervention; for Vertical Movement (Number of Times Standing Up) in Open Field Test, After intervention (x ± S): after CUMS with intervention; for Total Distance Travelled in Open Field Test, After CUMS + intervention (x ± S): after further 40 days CUMS with intervention; for Total Distance Travelled in Open Field Test, Base line (x ± S) / Vertical Movement (Number of Times Standing Up) in Open Field Test, Base line (x ± S): before CUMS and before intervention
Experimental: as §1, §2, §3
(§4) Tests were then carried out to assess rat behaviours, such as the open field test and the elevated maze test (see FIG. 2). These are standard ways to measure rat stress and anxiety traits.

IL-6 = IL-6 content in serum, brain and colon of CUMS rats; assay type: in vivo, rat; conditions: for IL-6 Content, Brain / IL-6 Content, Colon: end of experiment; for IL-6 Content, serum-after intervention: after CUMS with intervention; for IL-6 Content, serum-after CUMS: before intervention
Experimental: as §1, §2, §3
(§5) A series of blood markers were assessed.

TNF-α = TNF-α content in serum, brain and colon of CUMS rats; assay type: in vivo, rat; conditions: for TNF-α Content, Brain / TNF-α Content, Colon: end of experiment; for TNF-α Content, serum-after intervention: after CUMS with intervention; for TNF-α Content, serum-after CUMS: before intervention
Experimental: as §1, §2, §3, §5

[4] = test system: Corticotropin Releasing Hormone (CRH); assay: Serum corticotropin releasing hormone content in CUMS rats; assay type: in vivo, rat; conditions: for Serum Corticotropin Releasing Hormone (CRH) Content, After intervention: after CUMS with intervention; for Serum Corticotropin Releasing Hormone (CRH) Content, After CUMS: before intervention
Experimental: as §1, §2, §3

Cortisol = Cortisol (HPA axis) after stress; assay type: in vivo; conditions: stress induced; no data shown
CUMS rats [5] = assay: Elevated-plus maze test in CUMS rats; assay type: in vivo, rat; conditions: for Time in Closed Arms in Elevated Plus Maze, After intervention (x ± S) / Total Distance Travelled in Elevated Maze Test, After intervention (x ± S): after CUMS with intervention; for Time in Closed Arms in Elevated Plus Maze, After CUMS (x ± S) / Total Distance Travelled in Elevated Maze Test, After CUMS (x ± S): before intervention; for Time in Closed Arms in Elevated Plus Maze, Base line (x ± S) / Total Distance Travelled in Elevated Maze Test, Base line (x ± S): before CUMS and before intervention
Experimental: as §1, §2, §3, §4

intestinal microbiota = assay: 16S rRNA sequencing of faecal samples (gut microbiota) of CUMS rats; assay type: in vivo, rat; conditions: for CUMS-induced alterations of relative abundance at phylum level: Firmicutes, Bacteroidetes, Verrucomicrobias, Proteobacterias, Actinobacterias; for CUMS-induced changes at genus level: Lactobacillus, Eubacterium coprostanoligenes group, Lachnospiraceae-NK4A136-group; for CUMS-induced changes of relative abundance at family level: Ruminococcaceae, Lactobacillaceae, Lachnospiraceae; for Sobs, ACE, Chao1 and Shannon index (alpha-diversity): compared with CUMS group, FIG. 9; for Beta diversity, PCoA plot: in comparison with CUMS rats, FIG. 10A; for Firmicutes to Bacteroidetes ratio (F/B ratio): increased after CUMS stimulation
Experimental: To evaluate whether probiotics, as well as CUMS, alter intestinal microbiota, 16S rRNA sequencing of faecal samples was performed. Alpha-diversity, as measured by richness (Sobs index, Chao1 index and ACE index; see FIGS. […]), and diversity (Shannon index; see FIG. 9 D), was decreased after CUMS. Beta diversity analysis was evaluated through PCoA to assess differences in microbial composition among six groups (FIG. 10A).

[6] = test system: Adrenocorticotropic Hormone (ACTH); assay: Serum adrenocorticotropic hormone content in CUMS rats; assay type: in vivo, rat; conditions: for Serum Adrenocorticotropic Hormone (ACTH) Content, After intervention: after CUMS with intervention; for Serum Adrenocorticotropic Hormone (ACTH) Content, After CUMS: before intervention
Experimental: as §1, §2, §3

[7] = test system: TNF-alpha, IL-6, IL-1β and IL-18; assay: Cytokines TNF-alpha, IL-6, IL-1β and IL-18 in serum, brain tissue and colon of CUMS rats; assay type: in vivo, rat; conditions: versus CUMS
Experimental: as §1, §2, §3, §5

Molecule	Morphology of hippocampus (DG, CA1) and cortex (P2) (brain and colon tissue)	Total Distance Travelled in Open Field Test, After CUMS only (x ± S) (CUMS rats [3])	Vertical Movement (Number of Times Standing Up) in Open Field Test, After intervention (x ± S) (CUMS rats [3])	Vertical Movement (Number of Times Standing Up) in Open Field Test, After CUMS (x ± S) (CUMS rats [3])	Total Distance Travelled in Open Field Test, Base line (x ± S) (CUMS rats [3]) [Metres]	Vertical Movement (Number of Times Standing Up) in Open Field Test, Base line (x ± S) (CUMS rats [3])	IL-6 Content, Brain (IL-6)	IL-6 Content, Colon (IL-6)	IL-6 Content, serum-after intervention (IL-6)	IL-6 Content, serum-after CUMS (IL-6)	TNF-α Content, Brain (TNF-α)	TNF-α Content, Colon (TNF-α)	TNF-α Content, serum-after intervention (TNF-α)	TNF-α Content, serum-after CUMS (TNF-α)	Serum Corticotropin Releasing Hormone (CRH) Content, After CUMS [4]	Time in Closed Arms in Elevated Plus Maze, After intervention (x ± S) (CUMS rats [5])	Total Distance Travelled in Elevated Maze Test, After intervention (x ± S) (CUMS rats [5])	Time in Closed Arms in Elevated Plus Maze, After CUMS (x ± S) (CUMS rats [5])	Total Distance Travelled in Elevated Maze Test, After CUMS (x ± S) (CUMS rats [5])	Time in Closed Arms in Elevated Plus Maze, Base line (x ± S) (CUMS rats [5]) [s]	further results
Lactocaseibacillus rhamnosus strain HN001	CUMS-associated damage was largely reduced	5.64 ± 2.10^a Metres	13.57 ± 4.39^b	3.43 ± 2.88^a	23.43 ± 8.42	19.67 ± 6.26	20.44 ± 3.06v pg/ml	31.56 ± 9.00^b pg/ml	9.96 ± 4.10^b pg/ml	14.01 ± 5.98^a pg/ml	61.99 ± 5.17^b pg/ml	79.89 ± 11.48^b pg/ml	12.88 ± 4.62^b pg/ml	21.12 ± 6.40^a pg/ml	5.53 ± 2.77^a pg/ml	220.28 ± 11.45^b Seconds	8.61 ± 1.63^b Metres	280.00 ± 9.58^a Seconds	3.17 ± 1.88^a Metres	230.69 ± 23.78	Reduced weight gain in rats exposed to CUMS [1]: improved; Effects of CUMS on neurotransmitters (5-HT, DA, NE, Glu, GABA) and metabolites [2]: able to reverse the effects of CUMS; Total Distance Travelled in Open Field Test, After CUMS + intervention (x ± S) (CUMS rats [3]): 14.62 ± 7.97^b Metres; Serum Corticotropin Releasing Hormone (CRH) Content, After intervention [4]: 2.38 ± 1.59^b pg/ml; Cortisol level (Cortisol): reduced closer to non-stressed control levels; Total Distance Travelled in Elevated Maze Test, Base line (x ± S) (CUMS rats [5]): 8.28 ± 0.81 Metres; CUMS-induced alterations of relative abundance at phylum level (intestinal microbiota): alleviated the phylum alterations; CUMS-induced changes at genus level (intestinal microbiota): improved; CUMS-induced changes of relative abundance at family level (intestinal microbiota): reversed the changes of family; Sobs, ACE, Chao1 and Shannon index (alpha-diversity) (intestinal microbiota): decreased; Beta diversity, PCoA plot (intestinal microbiota): marked differences; Firmicutes to Bacteroidetes ratio (F/B ratio) (intestinal microbiota): decreased the F/B ratio; Serum Adrenocorticotropic Hormone (ACTH) Content, After intervention [6]: 3.12 ± 2.52^b pg/ml; Serum Adrenocorticotropic Hormone (ACTH) Content, After CUMS [6]: 5.85 ± 3.35^a pg/ml
Bifidobacterium animalis subsp. lactis strain HN019	CUMS-associated damage was largely reduced	5.42 ± 3.11^a Metres	11.63 ± 4.90^b	4.50 ± 3.42^a	24.65 ± 3.59	19.62 ± 6.80	19.25 ± 4.78^b pg/ml	31.88 ± 7.83^b pg/ml	10.19 ± 4.47^b pg/ml	13.08 ± 4.30^a pg/ml	60.67 ± 6.65^b pg/ml	71.34 ± 10.46^b pg/ml	12.08 ± 3.68^b pg/ml	23.97 ± 3.69^a pg/ml	5.19 ± 3.48^a pg/ml	215.28 ± 17.98^b Seconds	7.91 ± 0.65^b Metres	288.83 ± 11.57^a Seconds	3.08 ± 2.21^a Metres	215.83 ± 23.30	Reduced weight gain in rats exposed to CUMS [1]: improved; Effects of CUMS on neurotransmitters (5-HT, DA, NE, Glu, GABA) and metabolites [2]: able to reverse the effects of CUMS; Total Distance Travelled in Open Field Test, After CUMS + intervention (x ± S) (CUMS rats [3]): 12.21 ± 2.54^b Metres; Serum Corticotropin Releasing Hormone (CRH) Content, After intervention [4]: 2.47 ± 1.34^b pg/ml; Cortisol level (Cortisol): reduced closer to non-stressed control levels; Total Distance Travelled in Elevated Maze Test, Base line (x ± S) (CUMS rats [5]): 9.35 ± 1.38 Metres; CUMS-induced alterations of relative abundance at phylum level (intestinal microbiota): alleviated the phylum alterations; CUMS-induced changes at genus level (intestinal microbiota): improved; CUMS-induced changes of relative abundance at family level (intestinal microbiota): reversed the changes of family; Sobs, ACE, Chao1 and Shannon index (alpha-diversity) (intestinal microbiota): decreased; Beta diversity, PCoA plot (intestinal microbiota): marked differences; Firmicutes to Bacteroidetes ratio (F/B ratio) (intestinal microbiota): decreased the F/B ratio; Serum Adrenocorticotropic Hormone (ACTH) Content, After intervention [6]: 2.13 ± 1.88^b pg/ml; Serum Adrenocorticotropic Hormone (ACTH) Content, After CUMS [6]: 5.53 ± 3.43^a pg/ml
CNCCC(Oc1ccc(C(F)(F)F)cc1)c1ccccc1 (stereo not drawn) [Flu, fluoxetine, reference compound]	CUMS-associated damage was largely reduced	2.89 ± 2.15^a Metres	11.20 ± 3.49^b	2.00 ± 1.79^a	23.34 ± 2.98	17.20 ± 8.04	19.35 ± 4.29^b pg/ml	30.89 ± 7.22^b pg/ml	9.83 ± 3.83^b pg/ml	13.35 ± 6.46^a pg/ml	48.62 ± 7.26^b pg/ml	69.09 ± 12.48^b pg/ml	9.83 ± 3.83^b pg/ml	23.35 ± 6.46^a pg/ml	5.50 ± 2.02^a pg/ml	224.96 ± 18.71^b Seconds	6.19 ± 1.75^b Metres	292.57 ± 8.90^a Seconds	2.37 ± 1.12^a Metres	240.31 ± 16.95	Morphology of colon tissue (intestinal villi, mucosa) (brain and colon tissue; colon): largely reduced; Levels of cytokines TNF-alpha, IL-6, IL-1β and IL-18 [7]: reduced levels of cytokines; Total Distance Travelled in Elevated Maze Test, Base line (x ± S) (CUMS rats [5]): 7.44 ± 1.38 Metres; Serum Adrenocorticotropic Hormone (ACTH) Content, After intervention [6]: 2.90 ± 2.20^b pg/ml; Serum Adrenocorticotropic Hormone (ACTH) Content, After CUMS [6]: 5.58 ± 1.41^a pg/ml
